{"source": "patent US20260240878A1", "about": "“PTP1B/TC-PTP DUAL INHIBITORS AND PROTEIN DEGRADERS” (Purdue Research Foundation, priority 2023, published 2026)", "key": {"HEK293 cells": {"system": "HEK293 cells", "experiment": "Proteomic analysis for degradation selectivity in HEK293 cells", "format": "cell-based", "conditions": "100 nM, 4 hours", "method": "The proteome-wide degradation selectivity of compound 47 was assessed by performing quantitative mass spectrometry-based proteomic experiments to determine the range of targets degraded by compound 47 in HEK293 cells."}, "PTP1B and TC-PTP [1]": {"system": "PTP1B and TC-PTP", "experiment": "Western blot quantification of PTP1B/TC-PTP and pSTAT1 in multiple cell lines", "format": "cell-based", "method": "The GAPDH protein was used as the loading control. Compound 47 induces PTP1B and TC-PTP degradation in all tested cell lines with low nanomolar DC50s.\nThe GAPDH protein was used as the loading control. […] The changes in pSTAT1 level were positively correlated with TC-PTP/PTP1B degradation among all cell lines.\nTissues or cultured cells were lysed with ice-cold lysis buffer (50 mM Tris (pH 8.0, 150 mM NaCl, 10% Glycerol, 1% Triton-X-100) supplied with phosphatase inhibitor (Bimake) and protease inhibitor mixture (Roche Applied Science). Equal amounts of protein were resolved by SDS-PAGE, transferred to nitrocellulose membrane, and subjected to immunoblotting. Antibodies used in this study include anti-following proteins: pSTAT1^Tyr701 (Cell Signaling Technology #9167, 1:3000), GAPDH (Cell Signaling Technology #97166, 1:5000), pJAK1^Tyr1034/1035 (Cell Signaling Technology #74129, 1:1000), pJAK2^Tyr1007/1008 (Cell Signaling Technology #3776, 1:1000), TC-PTP (Abcam #ab180764, 1:3000). PTP1B (Abcam #ab244207, 1:1500)."}, "MC38 cells": {"system": "MC38 cells", "experiment": "MHC-I expression in MC38 cells by flow cytometry", "format": "cell-based", "conditions": "500 nM 16 hours, then mouse IFN-γ 48 hours", "method": "Mouse MHC-I complex was stained with mouse H2K(b)/H2D(b) antibody and measured by flow cytometry.\nAfter incubation, MC38 cells were trypsinized and washed in PBS+2% FBS, stained with Alexa Fluor® 647 anti-mouse H-2Kb/H-2Db Antibody against mouse MHC-I complex and then analyzed on a BD Fortessa LSR flow cytometry cell analyzer."}, "MC38 syngeneic tumor": {"system": "MC38 syngeneic tumor", "experiment": "MC38 syngeneic tumor study", "format": "in vivo, mouse", "method": "Quantification was performed based on six representative images from six sections.\nFor MC38 syngeneic tumor study, 12 weeks C57BL6 female mice were injected subcutaneously with 10^6 MC38 cells for tumor growth. When tumors reached an average volume of 200 mm^3, mice were tumor size-matched and randomly assigned to different experimental groups for experiments. Mice were injected intraperitoneally with saline or 25 or 50 mg/kg compound 47 daily. Tumor sizes and animal weights were measured twice per week (FIGS. 5B-5C). Tumor volume (mm^3)=(length×width^2)/2. At the end of the experiments, mice were euthanized, and tumors were collected for analysis."}, "PTP1B and TC-PTP [2]": {"system": "PTP1B and TC-PTP", "experiment": "PTP1B/TC-PTP degradation and pJAK1/2 elevation in MEF cells", "format": "cell-based, mouse", "conditions": "500 nM, 16 hours", "method": "Deletion of TC-PTP or PTP1B abolished the compound 47-induced phosphorylation of the TC-PTP substrate JAK1 or the PTP1B substrate JAK2. Thus, compound 47 efficiently amplifies cellular […] signaling by degrading PTP1B and TC-PTP. U2OS cells were treated with DMSO or 0.2 μM compound 47 for 16 hours and stimulated with 20 ng/ml IFN-γ for 30 minutes. […] DAPI was used to stain the cell nucleus.\nThe target engagement by compound 47 inside the cell was ascertained. As negative regulators of IFN-γ signaling, PTP1B and TC-PTP dephosphorylate JAK2 at Y1007/Y1008 and JAK1 at Y1034/Y1035, respectively. In addition, TC-PTP can also directly dephosphorylate STAT family members, including STAT1 and STAT3, in the nucleus to comprehensively attenuate IFN signaling. […] In contrast, the addition of compound 47 to PTP1B^−/− MEF cells further increased the IFN-γ mediated TC-PTP substrate pJAK1/Y1034/Y1035 level with no alteration of PTP1B substrate JAK2/Y1007/Y1008 phosphorylation."}, "[3]": {"experiment": "Blood glucose levels study in mice", "format": "in vivo, mouse", "method": "Blood glucose levels were measured 24 or 48 hours after injection. No starvation applied. NFD=normal fat diet fed mice. […] Mice were treated with 25 or 50 mg/kg of compound 47 daily through i.p. injection. Blood glucose levels were measured several times before injection during the experiment.\nPTP1B and TC-PTP are known to function in concert in regulating both insulin and leptin-mediated cellular processes. The inhibition of PTP1B and TC-PTP was reported to improve insulin sensitivity and glucose homeostasis in diet-induced obese mice. The effect of compound 47 on the glucose levels in mice was evaluated."}, "pSTAT1": {"system": "pSTAT1", "experiment": "STAT1 phosphorylation in IFN-γ stimulated HEK293 cells (western blot)", "format": "cell-based", "conditions": "Homo sapiens, HEK293, 16 h, read-out: EC50 of pSTAT1 activation", "method": "Wild-type HEK293 cells were treated with compound 47 or ABBV-CLS-484 for 16 hours, and stimulated with 20 ng/ml IFN-γ to induce JAK-STAT signaling pathway activation.\nAbbvie and Calico developed a potent PTP1B/TC-PTP inhibitor ABBV-CLS-484 (disclosed in International PCT application WO2019246513), and it is currently being evaluated as a treatment for locally advanced or metastatic tumors (NCT04777994)."}}, "note": "*1 amine or outer side, *2 acyl side, *3 side chain or, on linkers, in order; H or OH if unused. Where a SMILES comes first, the peptide text is derived from it. [ ]: non-standard residue; d: D form. The star is where a group is joined. NHCH2(1,3-C6H4)CH2CO = O=C(Cc1cccc(CN[*:1])c1)[*:2]; F2Pmp = N[C@@H](Cc1ccc(C(F)(F)P(=O)(O)O)cc1)C(=O)O; Phenylacetyl(4-OH,3-OMe) = COc1cc(CC(=O)*)ccc1O; Benzoyl(3-Br,4-Me) = Cc1ccc(C(=O)*)cc1Br; X1 = Cc1ncsc1-c1ccc([C@H](C)N*)cc1; Hyp = O=C(O)[C@@H]1C[C@@H](O)CN1; Tle = CC(C)(C)[C@H](N)C(=O)O", "data": [{"smiles": "COc1cc(CC(=O)N[C@@H](Cc2ccccc2)C(=O)N[C@@H](Cc2ccc(C(F)(F)P(=O)(O)O)cc2)C(=O)N[C@@H](CCCCNC(=O)c2ccc(C)c(Br)c2)C(=O)NCc2cccc(CC(=O)N[C@H](C(=O)N3C[C@H](O)C[C@H]3C(=O)N[C@@H](C)c3ccc(-c4scnc4C)cc3)C(C)(C)C)c2)ccc1O", "note": "[Compound 47, ((4-((S)-3-(((S)-6-(3-bromo-4-methylbenzamido)-1-((3-(2-(((S)-1-((2S,4R)-4-hydroxy-2-(((S)-1-(4-(4-methylthiazol-5-yl)phenyl)ethyl)carbamoyl)pyrrolidin-1-yl)-3,3-dimethyl-1-oxobutan-2-yl)amino)-2-oxoethyl)benzyl)amino)-1-oxohexan-2-yl)amino)-2-((S)-2-(2-(4-hydroxy-3-methoxyphenyl)acetamido)-3-phenylpropanamido)-3-oxopropyl)phenyl)difluoromethyl)phosphonic Acid] ({Phenylacetyl(4-OH,3-OMe)}-F[F2Pmp]K(Benzoyl(3-Br,4-Me))[NHCH2(1,3-C6H4)CH2CO][Tle][Hyp]-X1)", "values": [{"measurement": "proteome-wide degradation selectivity", "setting": "HEK293 cells", "result": "PTP1B was the only protein whose levels were significantly reduced"}, {"measurement": "DC50 of PTP1B and TC-PTP degradation", "setting": "PTP1B and TC-PTP [1]; all tested cell lines, 16 hours", "result": "low nanomolar"}, {"measurement": "pSTAT1 level", "setting": "PTP1B and TC-PTP [1]; multiple cell lines, 10 ng/ml IFN-γ 15 mins", "result": "enhances pSTAT1 level in all cell lines"}, {"measurement": "MHC-I expression", "setting": "MC38 cells", "result": "elevated expression of MHC-I"}, {"measurement": "CD8 T cell infiltration of tumor (CD8α IHC)", "setting": "MC38 syngeneic tumor; 25 mg/kg", "result": "high level of CD8-T cell infiltration"}, {"measurement": "MC38 tumor growth", "setting": "MC38 syngeneic tumor; 25 and 50 mg/kg i.p. daily, ten days", "result": "significantly inhibits MC38 tumor growth"}, {"measurement": "PTP1B and TC-PTP degradation in vivo (MC38 tumor)", "setting": "MC38 syngeneic tumor; 25 or 50 mg/kg", "result": "induces PTP1B and TC-PTP degradation in vivo"}, {"measurement": "IFN-γ stimulated JAK2 and JAK1 phosphorylation", "setting": "PTP1B and TC-PTP [2]", "result": "augmented"}, {"measurement": "PTP1B and TC-PTP removal", "setting": "PTP1B and TC-PTP [2]", "result": "complete removal"}, {"measurement": "blood glucose level", "setting": "[3]; MC38 tumor mouse model, 25 mg/kg daily i.p.", "result": "did not lead to significant reduction in the level of blood glucose"}, {"measurement": "blood glucose level", "setting": "[3]; MC38 tumor mouse model, 50 mg/kg daily i.p.", "result": "slightly reduced blood glucose level"}, {"measurement": "blood glucose level", "setting": "[3]; high-fat diet (HFD) mice, 15 mg/kg", "result": "sufficient to reduce blood glucose level in high-fat diet (HFD) mice to that of normal fat diet fed (NFD) mice"}, {"measurement": "blood glucose level", "setting": "[3]; high-fat diet (HFD) mice, 50 mg/kg", "result": "further reduced glucose levels"}, {"measurement": "EC50", "setting": "pSTAT1", "result": 9.1, "unit": "nM"}]}]}
